According to PubChem BioAssay (NCI):
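Grown in 96-well plates, cells were treated for 48 hours with each compound at five concentrations. Insufficient inhibition: endpoint recorded as highest concentration tested. GI50 is the concentration that inhibits growth by half. The concentration for full growth arrest is given as TGI.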

Tests used:
Assay in all cases: growth of human tumour cells (NCI), 48 h; in the data active = GI50 below about 0.43 µM; inactive = the rest
[1] = test system: SF-268 CNS
[2] = test system: SR leukemia
[3] = test system: NCI-H226 lung
[4] = test system: HOP-62 NSCLC
[5] = test system: OVCAR-4 ovarian
[6] = test system: SW-620 colon
[7] = test system: 786-0 renal
[8] = test system: UACC-257 melanoma
[9] = test system: ACHN renal
[10] = test system: TK-10 renal
[11] = test system: SK-OV-3 ovarian
[12] = test system: CCRF-CEM leukemia
[13] = test system: SN12C renal
[14] = test system: HS 578T breast
[15] = test system: HOP-92 NSCLC
[16] = test system: MOLT-4 leukemia
[17] = test system: RXF 393 renal
[18] = test system: MCF7 breast
[19] = test system: K-562 leukemia
[20] = test system: HT29 colon
[21] = test system: HL-60(TB) leukemia
[22] = test system: A549 NSCLC
[23] = test system: LOX IMVI melanoma
[24] = test system: SF-295 CNS
[25] = test system: HCT-15 colon
[26] = test system: OVCAR-8 ovarian
[27] = test system: NCI-H23 lung
[28] = test system: OVCAR-3 ovarian
[29] = test system: HCT-116 colon
[30] = test system: NCI-H460 lung
[31] = test system: DU-145 prostate
[32] = test system: SK-MEL-5 melanoma
[33] = test system: A498 renal
[34] = test system: HCC-2998 colon
[35] = test system: NCI-H522 lung
[36] = test system: SNB-75 CNS
[37] = test system: MDA-MB-435
[38] = test system: T-47D breast
[39] = test system: BT-549 breast
[40] = test system: CAKI-1 renal
[41] = test system: IGROV1 ovarian
[42] = test system: SK-MEL-2 melanoma
[43] = test system: KM12 colon
[44] = test system: MALME-3M melanoma
[45] = test system: EKVX NSCLC
[46] = test system: MDA-MB-231 breast
[47] = test system: RPMI-8226 leukemia
[48] = test system: U251 CNS
[49] = test system: SNB-19 CNS
[50] = test system: UO-31 renal
[51] = test system: SK-MEL-28 melanoma
[52] = test system: NCI/ADR-RES ovarian
[53] = test system: M14 melanoma
[54] = test system: OVCAR-5 ovarian
[55] = test system: PC-3 prostate
[56] = test system: COLO 205 colon
[57] = test system: UACC-62 melanoma
[58] = test system: MDA-N
[59] = test system: SF-539 CNS

O=C1N(Cc2ccccc2Cl)c2ccccc2C12NN=C(c1cccc(Cl)c1)S2 (centres undefined)
4.3 µM: TGI [20]
4.14 µM: TGI [52]
3.05 µM: TGI [11]
3.67 µM: TGI [27]
3.28 µM: TGI [37]
3.26 µM: TGI [1] | TGI [31] | TGI [50]
5.67 µM: TGI [2]
2.84 µM: TGI [36]
3.38 µM: TGI [42]
3.17 µM: TGI [15] | TGI [24]
6.04 µM: TGI [47]
2.95 µM: TGI [33]
3.45 µM: TGI [55]
3.12 µM: TGI [7]
2.86 µM: TGI [3]
5.39 µM: TGI [19]
3.75 µM: TGI [41]
3.41 µM: TGI [22]
3.32 µM: TGI [30] | TGI [49]
3.08 µM: TGI [45]
3.44 µM: TGI [39]
3.48 µM: TGI [35]
3.3 µM: TGI [56]
2.98 µM: TGI [29]
3.25 µM: TGI [53]
3.07 µM: TGI [40]
2.89 µM: TGI [4]
3.4 µM: TGI [17]
3.52 µM: TGI [57]
6.32 µM: TGI [21]
3.43 µM: TGI [9] | TGI [28]
inactive: GI50 [1] 1.59 µM | GI50 [2] 2.14 µM | GI50 [3] 1.49 µM | GI50 [4] 1.55 µM | GI50 [5] 1.95 µM | GI50 [6] 2.02 µM | GI50 [7] 1.72 µM | GI50 [8] 1.7 µM | GI50 [9] 1.81 µM | GI50 [10] 1.77 µM | GI50 [11] 1.69 µM | GI50 [12] 1.86 µM | GI50 [13] 1.91 µM | GI50 [14] 2.4 µM | GI50 [15] 1.74 µM | GI50 [16] 2.04 µM | GI50 [17] 1.76 µM | GI50 [18] 1.75 µM | GI50 [19] 2.21 µM | GI50 [20] 2.02 µM | GI50 [21] 2.49 µM | GI50 [22] 1.86 µM | GI50 [23] 1.49 µM | GI50 [24] 1.71 µM | GI50 [25] 1.9 µM | GI50 [26] 1.96 µM | GI50 [27] 1.63 µM | GI50 [28] 1.83 µM | GI50 [29] 1.62 µM | GI50 [30] 1.42 µM | GI50 [31] 1.7 µM | GI50 [32] 1.71 µM | GI50 [33] 1.54 µM | GI50 [34] 1.78 µM | GI50 [35] 1.72 µM | GI50 [36] 1.47 µM | GI50 [37] 1.75 µM | GI50 [38] 1.62 µM | GI50 [39] 1.83 µM | GI50 [40] 1.69 µM | GI50 [41] 1.78 µM | GI50 [42] 1.77 µM | GI50 [43] 1.82 µM | GI50 [44] 1.54 µM | GI50 [45] 1.69 µM | GI50 [46] 2.02 µM | GI50 [47] 2.36 µM | GI50 [48] 1.77 µM | GI50 [49] 1.75 µM | GI50 [50] 1.69 µM | GI50 [51] 1.86 µM | GI50 [52] 1.78 µM | GI50 [53] 1.7 µM | GI50 [54] 1.88 µM | GI50 [55] 1.74 µM | GI50 [56] 1.77 µM | GI50 [57] 1.76 µM
3.15 µM: TGI [10] | TGI [48]
4.64 µM: TGI [16]
5.85 µM: TGI [14]
3.11 µM: TGI [32]
3.92 µM: TGI [13]
3.37 µM: TGI [18]
3.27 µM: TGI [8]
3.57 µM: TGI [51]
4.2 µM: TGI [46]
4.05 µM: TGI [5]
4.93 µM: TGI [12]
3.1 µM: TGI [38]
3.79 µM: TGI [43]
4.33 µM: TGI [6]
4.41 µM: TGI [26]
3.76 µM: TGI [54]
3.24 µM: TGI [34] | TGI [44]
4.19 µM: TGI [25]
2.92 µM: TGI [23]

Cc1cc(S(=O)(=O)Nc2n[nH]c(N)n2)c(Cl)cc1Cl
> 10 µM: TGI [1] | TGI [3] | TGI [4] | TGI [5] | TGI [6] | TGI [7] | TGI [8] | TGI [9] | TGI [10] | TGI [11] | TGI [12] | TGI [13] | TGI [14] | TGI [16] | TGI [17] | TGI [19] | TGI [20] | TGI [21] | TGI [22] | TGI [23] | TGI [24] | TGI [25] | TGI [26] | TGI [27] | TGI [28] | TGI [29] | TGI [30] | TGI [31] | TGI [32] | TGI [33] | TGI [34] | TGI [35] | TGI [36] | TGI [37] | TGI [38] | TGI [58] | TGI [39] | TGI [40] | TGI [41] | TGI [42] | TGI [43] | TGI [44] | TGI [45] | TGI [46] | TGI [47] | TGI [48] | TGI [49] | TGI [51] | TGI [52] | TGI [53] | TGI [54] | TGI [55] | TGI [56] | TGI [59] | TGI [57]
